{"source": "paper PMC3912015", "about": "“Synthetic Multivalent Antifungal Peptides Effective against Fungi” (PLoS ONE, 2014)", "key": {"F. solani DF1500": {"test_system": "F. solani DF1500", "experiment": "microbe, parasite or virus in culture", "type": "cell-based", "details": "48 h"}, "C. albicans DF1976R": {"test_system": "C. albicans DF1976R", "experiment": "microbe, parasite or virus in culture", "type": "cell-based", "details": "DF1976R, 48 h; read-out: MIC in µM against Ca DF1976R", "description": "(§1) The yeast strains were cultivated and suspended in Sabouraud’s Dextrose (SD) broth diluted to one sixth at a starting OD600 = ∼0.08 in a flat-bottomed microtitre plate. A serial dilution of peptide in the same broth was mixed with the inoculum to give a final peptide concentration of 0.4–22 µM. The antifungal activity was assessed by monitoring the OD600 in cycles of 30 minutes and an orbital shaking at 100 rpm using an Infinite M200 microplate reader (Tecan Group Ltd., Switzerland) for 24/48 h at 37°C. Cultures without peptides were used as positive controls and broth alone or with 22 µM peptide served as negative controls. The minimum concentration required for complete inhibition was assessed by both visible observations as well as by measuring the OD600 and taken as the MIC. Each experiment was repeated in triplicates. For studying the effects of metal ions, SD broth was adjusted with appropriate concentrations of salts to yield a final concentration of 100 and 135 mM for NaCl and KCl and 0.5–2 mM for CaCl2 and MgCl2. MIC determinations were carried out as described above. C. albicans ATCC10231 cells and salts in broth were taken as a positive control. Salts alone (NaCl, KCl, and CaCl2 and MgCl2) in broth or with 22 µM peptide served as a negative control. The effect of 5% human serum on the activities of B4010 against two C. albicans clinical isolates was determined. The human male serum was centrifuged at 13,000 rpm for 10 mins in order to remove the lipids and the supernatant was collected. The MIC values against clinical isolates of C. albicans 2672R and C. albicans 1976R were determined both in standard medium (SD broth) as well as in standard medium containing 5% serum supernatant as before."}, "C. albicans ATCC10231": {"test_system": "C. albicans ATCC10231", "experiment": "microbe, parasite or virus in culture", "type": "cell-based", "details": "ATCC10231, 48 h; read-out: MIC in µM against Ca 10231", "description": "as §1"}, "C. albicans ATCC24433": {"test_system": "C. albicans ATCC24433", "experiment": "microbe, parasite or virus in culture", "type": "cell-based", "details": "ATCC24433, 48 h", "description": "as §1"}, "C. albicans ATCC2091": {"test_system": "C. albicans ATCC2091", "experiment": "microbe, parasite or virus in culture", "type": "cell-based", "details": "ATCC2091, 48 h", "description": "as §1"}, "C. albicans DF2672R": {"test_system": "C. albicans DF2672R", "experiment": "microbe, parasite or virus in culture", "type": "cell-based", "details": "DF2672R, 48 h; read-out: MIC in µM against Ca 2672R", "description": "as §1"}, "[1]": {"experiment": "Intact peptide after trypsin incubation (mass spectrometry)", "type": "in vitro ADME", "details": "6 h incubation with trypsin", "description": "For all the experiments, unless otherwise stated, C. albicans ATCC 10231 strain was used. B4010 (1 mg/mL) was incubated with trypsin (enzyme:peptide ratio 1∶100) at 37°C. 20 µL aliquot of this mixture was withdrawn at various time intervals (0.5, 1, 2, 4 and 6 h) and mixed with 1 µL of trypsin inhibitor. The antifungal activity of the peptide was determined by adding this mixture to 180 µL of inoculum and monitoring the growth at OD600 for 24 h. Similar experiments performed in the presence of trypsin/trypsin inhibitor (without B4010) were used as a positive control. For assessing the antifungal activity in TF, the peptide was dissolved in freshly collected rabbit TF and incubated at 37°C for 6 h. After incubation, an equal volume of an overnight culture of C. albicans (∼10^6 CFU/mL) was mixed with peptides in tear fluid and incubated at 37°C for 24 h. The final concentrations of the peptide were at 4.4, 8.8 and 22 µM. A 100 µL aliquot of serial dilutions (10^2 or 10^3 times) of this mixture were inoculated on a SD agar plate and then incubated for 48 h at 37°C. Culture alone and culture with 50% tear fluid served as the positive control. The data was expressed in % killing with respect to culture without tear fluid.\nSupplementary file pone.0087730.s002.tif: Figure S2 Positive charge electrospray ionization mass spectrometry of B4010 after incubation with trypsin (enzyme:B4010 = 1∶100). […]"}, "F. solani ATCC36031": {"test_system": "F. solani ATCC36031", "experiment": "microbe, parasite or virus in culture", "type": "cell-based", "details": "ATCC36031, 48 h"}, "Haemolytic assay": {"experiment": "Haemolytic assay", "type": "cell-based", "details": "rabbit red blood cells, 440 µM, 4% rabbit erythrocytes, read-out: haemolysis", "description": "Haemolytic activity of peptides and antifungal drugs were determined against rabbit red blood cells. Briefly, serial dilution of peptides/antifungals in PBS was mixed with rRBC (final concentration 4% v/v), incubated at 37°C for 1 h and centrifuged at 3000 rpm for 10 minutes. The release of hemoglobin in the supernatant was monitored by measuring the hemoglobin absorbance at 576 nm. The readings from cell suspension in PBS (without any additives) or 1% Triton-X100 were used as 0% or 100% haemolysis."}, "C57BL6 wild type mice": {"test_system": "C57BL6 wild type mice", "experiment": "In vivo acute toxicity", "description": "Acute toxicity of B4010 was assessed with C57BL6 (6–8 weeks old) wild type mice. Two healthy wild type mice were chosen for each routes of administration. B4010 was delivered through intra-peritoneal (200 mg/kg) or (100 mg/kg) intra-venous routes. Two animals were used for each administration and monitored through 24/48 h to determine mortality, or signs of toxicity."}, "F. solani DM3782": {"test_system": "F. solani DM3782", "experiment": "microbe, parasite or virus in culture", "type": "cell-based", "details": "48 h"}, "[2]": {"test_system": "clinical isolates of C. albicans 2672R and C. albicans 1976R", "experiment": "MIC against two clinical isolates, with or without 5% human serum", "type": "cell-based", "details": "48 h", "description": "as §1"}}, "note": "Read-outs that look alike come from different tables or passages of the source. Bridge positions count the residues as written; N and C are the ends. Peptide text beside a SMILES is read from it. I, II: the chains in the order shown.", "data": [{"molecule": "CC(C)[C@H](NC(=O)[C@H](CCCCN)NC(=O)[C@H](CCCNC(=N)N)NC(=O)CNC(=O)[C@@H](N)CCCNC(=N)N)C(=O)N[C@H](C(=O)N[C@@H](CCCNC(=N)N)C(=O)N[C@@H](CCCNC(=N)N)C(=O)NCCCC[C@H](NC(=O)[C@H](CCCNC(=N)N)NC(=O)[C@H](CCCNC(=N)N)NC(=O)[C@@H](NC(=O)[C@@H](NC(=O)[C@H](CCCCN)NC(=O)[C@H](CCCNC(=N)N)NC(=O)CNC(=O)[C@@H](N)CCCNC(=N)N)C(C)C)C(C)C)C(=O)NCCCC[C@H](NC(=O)[C@H](CCCCNC(=O)[C@H](CCCNC(=N)N)NC(=O)[C@H](CCCNC(=N)N)NC(=O)[C@@H](NC(=O)[C@@H](NC(=O)[C@H](CCCCN)NC(=O)[C@H](CCCNC(=N)N)NC(=O)CNC(=O)[C@@H](N)CCCNC(=N)N)C(C)C)C(C)C)NC(=O)[C@H](CCCNC(=N)N)NC(=O)[C@H](CCCNC(=N)N)NC(=O)[C@@H](NC(=O)[C@@H](NC(=O)[C@H](CCCCN)NC(=O)[C@H](CCCNC(=N)N)NC(=O)CNC(=O)[C@@H](N)CCCNC(=N)N)C(C)C)C(C)C)C(=O)N[C@@H](CCCCN)C(=O)O)C(C)C", "note": "[B4010] (I: H-RGRKVVRRKKK-OH / II: H-RGRKVVRRK / III: H-RGRKVVRR / IV: H-RGRKVVRR; amide I:9-IV:C, I:10-II:C, II:9-III:C; N-terminus and C-terminus assumed)", "values": [{"measurement": "MIC", "setting": "F. solani DF1500", "result": 1.4, "unit": "µM"}, {"measurement": "MIC", "setting": "C. albicans DF1976R", "result": 0.37, "unit": "µM"}, {"measurement": "MIC", "setting": "C. albicans ATCC10231", "result": 1.4, "unit": "µM"}, {"measurement": "MIC", "setting": "C. albicans ATCC24433; read-out: MIC", "result": 1.4, "unit": "µM"}, {"measurement": "MIC", "setting": "C. albicans ATCC24433; read-out: MIC in µM against Ca 24433", "result": 1.4, "unit": "µM"}, {"measurement": "MIC", "setting": "C. albicans ATCC2091; read-out: MIC", "result": 0.7, "unit": "µM"}, {"measurement": "MIC", "setting": "C. albicans ATCC2091; read-out: MIC in µM against Ca 2091", "result": 0.7, "unit": "µM"}, {"measurement": "MIC", "setting": "C. albicans DF2672R", "result": 0.37, "unit": "µM"}, {"measurement": "remaining at 6 h, 1 mg/mL", "setting": "[1]", "result": "~20", "unit": "%"}, {"measurement": "MIC", "setting": "F. solani ATCC36031", "result": 1.4, "unit": "µM"}, {"measurement": "hemolysis at 1 h, 440 µM", "setting": "Haemolytic assay", "result": "< 1", "unit": "%"}, {"measurement": "acute toxicity", "setting": "C57BL6 wild type mice; IP 200 mg/kg", "result": "no sign of mortality, morbidity or toxicity"}, {"measurement": "acute toxicity", "setting": "C57BL6 wild type mice; IV 100 mg/kg", "result": "no sign of mortality, morbidity or toxicity"}, {"measurement": "MIC", "setting": "F. solani DM3782", "result": 1.4, "unit": "µM"}, {"measurement": "MIC", "setting": "[2]", "result": 0.37, "unit": "µM"}]}]}
